We go through nine molecules from patent US5571820A, “Heterocyclic compound” (Taisho Pharmaceutical Co., Ltd., priority 1992, dated 1996).

Assay [1] deals with T1, serotonin 4 receptor (Cavia porcellus, UniProt O70528).
T1 construct: from tissue; host or cells: ileum longitudinal muscle strips of Hartley guinea pig
In words: Serotonin 4 receptor stimulating activity: twitch responses of electrically stimulated ileum longitudinal muscle strips. The assay is classed as cell-based, guinea pig (Hartley). The settings on record: for pEC50: twitch responses, guinea pig ileum longitudinal muscle strips, cumulative additions of agonist, read-out: ED50 of the serotonin 4 receptor stimulating activity. From the text:
Experiment 1. Serotonin 4 Receptor Stimulating Activity Compounds Tested
Twitch responses were examined in longitudinal muscle strips of guinea pig by a modification of the method described in The Journal of Pharmacology and Experimental Therapeutics, 252, 1378, 1990.
From Hartley guinea pigs, a section of ileum 25 cm in length and proximal to the ileocecal junction was removed. The longitudinal muscle strips obtained from two segments of ileum about 4 cm each in length were used for this experiment. The longitudinal muscle strips were suspended in Krebs' solution at 32° to 34° C. and bubbled with 95% O2 and 5% CO2 under a load of about 0.8 g. Twitch responses were recorded under electrical stimulation of 0.2 Hz, 1 msec pulse duration, using force displacement transducers. The longitudinal muscle strips, stimulated at supramaximal voltage, were allowed to equilibrate for about an hour. […] The test was carried out by exposing the strips to cumulative additions of agonist at least at 45-minute intervals.

Assay [2] relates to gastrointestinal motor functions. The settings on record: Alimentary Pharmacology and Therapeutics, 6, 273, 1992; cited from earlier work.
The test system of assay [3] is serotonin 4 receptor. The settings on record: Alimentary Pharmacology and Therapeutics, 6, 273, 1992; cited from earlier work.

Molecules are shown by their SMILES. pEC50: −log10 of the molar value. Where only a bound is given, the exact number is not on record here.

T1 sequence (O70528 whole entry): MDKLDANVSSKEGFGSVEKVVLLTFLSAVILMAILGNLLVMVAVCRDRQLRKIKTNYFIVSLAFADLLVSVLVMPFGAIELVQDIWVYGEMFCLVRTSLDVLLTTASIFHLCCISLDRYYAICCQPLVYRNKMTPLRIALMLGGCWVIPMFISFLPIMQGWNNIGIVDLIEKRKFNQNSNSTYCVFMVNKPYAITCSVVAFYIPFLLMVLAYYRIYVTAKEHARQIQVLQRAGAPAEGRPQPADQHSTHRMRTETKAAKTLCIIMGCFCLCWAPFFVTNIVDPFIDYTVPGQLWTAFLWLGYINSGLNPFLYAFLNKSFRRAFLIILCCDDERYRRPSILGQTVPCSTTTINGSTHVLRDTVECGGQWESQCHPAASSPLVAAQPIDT

With `NCCc1c[nH]c2ccc(O)cc12` [5-hydroxytryptamine (5-HT), 5-hydroxytryptamine], the “enhancement of twitch responses” value at serotonin 4 receptor [1] (10^-8 M) was “twitch responses were enhanced”. As for `COc1cc(N)c(Cl)cc1C(=O)NC1CCN(CCCOc2ccc(F)cc2)CC1OC` (centres unmarked) [Cisapride], in assay [2], the “effect on gastrointestinal motor functions and conditions” value is “accelerate gastrointestinal motor functions and improve gastrointestinal conditions”. For the same molecule, in the assay on serotonin 4 receptor [3], the “stimulation of serotonin 4 receptor” value is “stimulants of serotonin 4 receptor”. Consider `CCn1c(=O)c(C(=O)N[C@H]2C[C@H]3CC[C@@H](C2)N3C)cc2ccccc21` [Compound 2], for which the pEC50 on serotonin 4 receptor [1] is 6.86.

Take `CCCn1c(=O)c(C(=O)N[C@H]2C[C@H]3CC[C@@H](C2)N3C)cc2ccccc21` [Compound 3]: the pEC50 at serotonin 4 receptor [1] is 6.38. Take `CCCCn1c(=O)c(C(=O)N[C@H]2C[C@H]3CC[C@@H](C2)N3C)cc2ccccc21` [Compound 4]: the pEC50 at serotonin 4 receptor [1] was less than 5.52. In the case of `CC(C)Cn1c(=O)c(C(=O)N[C@H]2C[C@H]3CC[C@@H](C2)N3C)cc2ccccc21` [Compound 5], the pEC50 at serotonin 4 receptor [1] is 6.01.

Take `CN1[C@@H]2CC[C@H]1C[C@@H](NC(=O)c1cc3ccccc3[nH]c1=O)C2` [Compound 6]: the pEC50 at serotonin 4 receptor [1] was less than 5.52. For `CCCCn1c(=O)c(C(=O)N[C@H]2C[C@H]3CC[C@@H](C2)N3C)c(O)c2ccccc21` [Compound 7], at serotonin 4 receptor [1], the pEC50 is less than 5.52. For `COc1cc(N)c(Cl)cc1C(=O)NC1CCN2CCCC1C2` (centres unmarked) [renzapride], the “effect on gastrointestinal motor functions and conditions” value in assay [2] is “accelerate gastrointestinal motor functions and improve gastrointestinal conditions”. Moreover, in the assay with serotonin 4 receptor [3], the “stimulation of serotonin 4 receptor” value is “stimulants of serotonin 4 receptor”.
